# From ChEMBL document CHEMBL5725985, “Substituted pyridines as sodium channel blockers” (2017)
# Biological target: Sodium channel protein type 9 subunit alpha (Homo sapiens, UniProt Q15858)
# Experiment: FLIPR Assay: In vitro assays were performed in a recombinant cell line expressing cDNA encoding the alpha subunit (Nav1.7, SCN9a, PN1, NE) of human Nav1.7 (Accession No. NM_002977). The cell line was provided by investigators at Yale University (Cummins et al, J. Neurosci. 18(23): 9607-9619 (1998)). For dominant selection of the Nav1.7-expressing clones, the expression plasmid co-expressed the neomycin resistance gene. The cell line was constructed in the human embryonic kidney cell line, HEK293, under the influence of the CMV […] promoter, and stable clones were selected using limiting dilution cloning and antibiotic selection using the neomycin analogue, G418. Recombinant beta and gamma subunits were not introduced into this cell line. Additional cell lines expressing recombinant Nav1.7 cloned from other species can also be used, alone or in combination with various beta subunits, gamma subunits or chaperones.
# Chain of Sodium channel protein type 9 subunit alpha (Q15858 whole entry): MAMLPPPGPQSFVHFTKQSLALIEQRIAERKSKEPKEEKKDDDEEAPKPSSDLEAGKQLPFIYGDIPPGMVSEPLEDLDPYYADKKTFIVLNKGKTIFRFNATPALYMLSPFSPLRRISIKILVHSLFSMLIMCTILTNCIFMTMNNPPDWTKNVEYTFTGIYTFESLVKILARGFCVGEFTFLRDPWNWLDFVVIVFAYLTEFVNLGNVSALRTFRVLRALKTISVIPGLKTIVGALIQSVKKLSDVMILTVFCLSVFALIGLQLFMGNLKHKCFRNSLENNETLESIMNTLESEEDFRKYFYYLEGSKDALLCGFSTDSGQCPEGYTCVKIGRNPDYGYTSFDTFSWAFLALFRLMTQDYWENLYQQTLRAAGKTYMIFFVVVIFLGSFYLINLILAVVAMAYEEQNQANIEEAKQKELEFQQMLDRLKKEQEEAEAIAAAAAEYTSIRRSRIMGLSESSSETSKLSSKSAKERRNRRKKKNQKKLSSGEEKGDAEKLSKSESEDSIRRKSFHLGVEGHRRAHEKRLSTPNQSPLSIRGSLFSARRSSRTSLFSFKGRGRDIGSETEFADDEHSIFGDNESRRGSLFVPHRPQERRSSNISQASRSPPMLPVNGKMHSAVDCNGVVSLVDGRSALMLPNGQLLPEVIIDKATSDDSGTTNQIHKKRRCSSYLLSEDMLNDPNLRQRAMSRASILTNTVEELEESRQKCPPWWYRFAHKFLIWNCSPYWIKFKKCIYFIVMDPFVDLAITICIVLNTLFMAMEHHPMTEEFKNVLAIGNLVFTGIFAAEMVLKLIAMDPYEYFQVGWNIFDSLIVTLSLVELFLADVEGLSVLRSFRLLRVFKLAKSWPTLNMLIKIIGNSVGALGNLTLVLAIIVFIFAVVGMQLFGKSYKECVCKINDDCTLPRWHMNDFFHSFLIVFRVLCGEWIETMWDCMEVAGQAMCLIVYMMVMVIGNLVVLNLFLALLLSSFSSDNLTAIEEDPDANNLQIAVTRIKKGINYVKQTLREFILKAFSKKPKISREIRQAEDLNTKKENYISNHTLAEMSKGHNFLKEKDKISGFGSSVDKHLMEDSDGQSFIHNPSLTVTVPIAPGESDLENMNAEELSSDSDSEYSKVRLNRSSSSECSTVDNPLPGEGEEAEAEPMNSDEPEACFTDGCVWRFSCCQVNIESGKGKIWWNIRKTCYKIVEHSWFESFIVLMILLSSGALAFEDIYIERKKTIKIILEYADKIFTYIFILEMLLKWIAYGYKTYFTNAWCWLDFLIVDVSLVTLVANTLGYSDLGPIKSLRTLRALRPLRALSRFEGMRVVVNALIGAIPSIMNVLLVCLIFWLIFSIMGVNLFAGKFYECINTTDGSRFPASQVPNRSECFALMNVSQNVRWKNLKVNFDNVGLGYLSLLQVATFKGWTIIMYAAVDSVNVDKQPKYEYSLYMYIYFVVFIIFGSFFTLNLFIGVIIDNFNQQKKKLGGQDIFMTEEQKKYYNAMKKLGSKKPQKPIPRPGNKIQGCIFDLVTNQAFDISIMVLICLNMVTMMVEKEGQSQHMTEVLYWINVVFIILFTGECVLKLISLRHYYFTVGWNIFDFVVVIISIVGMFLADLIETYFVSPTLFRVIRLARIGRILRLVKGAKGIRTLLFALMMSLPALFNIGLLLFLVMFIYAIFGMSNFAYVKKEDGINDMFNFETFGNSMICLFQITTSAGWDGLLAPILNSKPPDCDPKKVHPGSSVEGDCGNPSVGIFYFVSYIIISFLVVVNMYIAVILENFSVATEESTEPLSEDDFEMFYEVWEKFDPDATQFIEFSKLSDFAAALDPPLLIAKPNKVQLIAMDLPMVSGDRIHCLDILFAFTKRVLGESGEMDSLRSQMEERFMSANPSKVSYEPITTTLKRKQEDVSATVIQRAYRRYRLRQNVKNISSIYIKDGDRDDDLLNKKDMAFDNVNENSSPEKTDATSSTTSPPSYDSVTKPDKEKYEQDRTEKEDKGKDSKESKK
smiles,measurement,value
CC(C)C[C@H](NC(=O)C1CC1)C(=O)Nc1cccc(-c2ccc(Oc3ccc(F)cc3)cc2)n1,IC50,36 nM
